Assay results published in patent publication US12338253B2, “Nitrogen-containing polycyclic fused ring compound, pharmaceutical composition thereof, preparation method therefor and use thereof” (APPLIED PHARMACEUTICAL SCIENCE, INC., priority 2019, dated 2025).

Legend:
TT Cell = experiment: TT cell activity test (CelltiterGlo, 72 h); format: cell-based, human; details: for IC50: Homo sapiens, TT cell line, 72 h, CTG; for inhibitory activity on TT cells compared with cabozantinib: comparison in words
Description: 2.3 Data Processing % Inhibition (inhibition rate)=100*(HC−test compound well reading)/(HC−LC) • High control (HC, reading control without inhibition): 0.5% DMSO • Low control (LC, control with compound inhibition): 1 μM CEP-32496
The IC50 values were calculated using GraphPad Prism 6 software. Y=Bottom+(Top−Bottom)/(1+10^((Log IC50−X)*HillSlope)); • X: log of cpd concentration; • Y: % inhibition; • Top and Bottom: plateaus in same units as Y; • Log IC50: same log units as X; and • HillSlope: slope factor The Cell Results are Shown in Table 5: […]

RET V804M = RET V804M (Homo sapiens (Human), UniProt P07949, V804M); experiment: HTRF kinase activity test, RET V804M; format: biochemical; details: for IC50: HTRF KinEASE-TK; for inhibitory activity on RET V804M compared with cabozantinib: comparison in words
Chain of RET V804M (P07949 29-1114 V804M): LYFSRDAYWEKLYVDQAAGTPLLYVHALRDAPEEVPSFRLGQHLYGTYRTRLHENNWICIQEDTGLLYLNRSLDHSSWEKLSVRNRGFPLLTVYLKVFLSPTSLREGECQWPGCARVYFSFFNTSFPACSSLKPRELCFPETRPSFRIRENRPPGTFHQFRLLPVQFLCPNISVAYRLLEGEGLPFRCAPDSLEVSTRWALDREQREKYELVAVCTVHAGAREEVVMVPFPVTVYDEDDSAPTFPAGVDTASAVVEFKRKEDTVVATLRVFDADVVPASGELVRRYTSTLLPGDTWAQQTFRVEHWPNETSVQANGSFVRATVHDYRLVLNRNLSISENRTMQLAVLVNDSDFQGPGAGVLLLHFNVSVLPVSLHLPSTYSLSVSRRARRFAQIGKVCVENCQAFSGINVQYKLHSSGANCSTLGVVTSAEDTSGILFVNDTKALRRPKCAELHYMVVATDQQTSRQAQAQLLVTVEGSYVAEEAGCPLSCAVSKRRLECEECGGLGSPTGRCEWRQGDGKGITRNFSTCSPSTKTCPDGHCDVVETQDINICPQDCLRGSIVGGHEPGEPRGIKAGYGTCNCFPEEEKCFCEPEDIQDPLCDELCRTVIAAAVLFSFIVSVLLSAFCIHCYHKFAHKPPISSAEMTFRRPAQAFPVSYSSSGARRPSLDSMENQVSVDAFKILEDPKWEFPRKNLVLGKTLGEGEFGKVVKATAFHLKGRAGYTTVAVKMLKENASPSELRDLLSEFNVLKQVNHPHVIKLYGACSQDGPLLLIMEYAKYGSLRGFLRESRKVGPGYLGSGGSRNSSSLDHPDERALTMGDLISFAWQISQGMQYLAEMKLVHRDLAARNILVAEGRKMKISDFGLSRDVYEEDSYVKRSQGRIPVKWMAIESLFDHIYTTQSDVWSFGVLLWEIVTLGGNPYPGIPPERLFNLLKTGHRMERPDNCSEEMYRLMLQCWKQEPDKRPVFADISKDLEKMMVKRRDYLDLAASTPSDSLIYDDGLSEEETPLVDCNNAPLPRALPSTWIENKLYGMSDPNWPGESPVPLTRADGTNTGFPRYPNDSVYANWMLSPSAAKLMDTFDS

RET wt = RET wt (Homo sapiens (Human), UniProt P07949); experiment: HTRF kinase activity test, RET wt; format: biochemical; details: for IC50: HTRF KinEASE-TK; for inhibitory activity on RET wt compared with cabozantinib: comparison in words
Chain of RET wt (P07949 29-1114): as the sequence (P07949 29-1114 V804M) above, with M776V counted along it

RET G810R = RET G810R (Homo sapiens (Human), UniProt P07949, G810R); experiment: HTRF kinase activity test, RET G810R; format: biochemical; details: for IC50: HTRF KinEASE-TK; for inhibitory activity on RET G810R compared with cabozantinib and selpercatinib (LOXO-292): comparison in words
Chain of RET G810R (P07949 29-1114 G810R): as the sequence (P07949 29-1114 V804M) above, with M776V, G782R counted along it

Row | SMILES | IC50 (TT Cell) [nM] | IC50 (RET V804M) [nM] | inhibitory activity on RET V804M compared with cabozantinib (RET V804M) | IC50 (RET wt) [nM] | inhibitory activity on RET wt compared with cabozantinib (RET wt) | inhibitory activity on TT cells compared with cabozantinib (TT Cell) | IC50 (RET G810R) [nM] | inhibitory activity on RET G810R compared with cabozantinib and selpercatinib (LOXO-292) (RET G810R)
1 | COCCOc1cc(-c2ccc(N3CC4CC(C3)N4Cc3ccc(OC)nc3)nc2)c2c3c(N)n[nH]c3nn2c1 [Compound 1, 6-(2-methoxyethoxy)-4-(6-(6-((6-methoxypyridin-3-yl)methyl)-3,6-diazabicyclo[3.3.1]heptan-3-yl)pyridin-3-yl)-1H-pyrazolo[3′,4′:3,4]pyrazolo[1,5-a]pyridin-3-amine] | 319 | 2.9 | significantly better than that of cabozantinib | 4.1 | significantly better than that of cabozantinib | – | – | –
2 | COCCOc1cc(-c2ccc(N3CC4CC(C3)N4Cc3ccc(OC)nc3)nc2)c2c3cn[nH]c3nn2c1 [Compound 7, 6-(2-methoxyethoxy)-4-(6-(6-((6-methoxypyridin-3-yl)methyl)-3,6-diazabicyclo[3.3.1]heptan-3-yl)pyridin-3-yl)-1H-pyrazolo[3′,4′:3,4]pyrazolo[1,5-a]pyridine] | 2.5 | 0.1 | significantly better than that of cabozantinib | 0.1 | significantly better than that of cabozantinib | significantly better than that of cabozantinib | 2.7 | significantly better than that of cabozantinib and selpercatinib (LOXO-292)
3 | COc1ccc(CN2C3CC2CN(c2ccc(-c4cc(OCCCF)cn5nc6[nH]ncc6c45)cn2)C3)cn1 [Compound 12, 6-(3-fluoropropoxy)-4-(6-(6-((6-methoxypyridin-3-yl)methyl)-3,6-diazabicyclo[3.3.1]heptan-3-yl)pyridin-3-yl)-1H-pyrazolo[3′,4′:3,4]pyrazolo[1,5-a]pyridine] | 1.5 | 0.1 | significantly better than that of cabozantinib | 0.1 | significantly better than that of cabozantinib | significantly better than that of cabozantinib | 3.9 | significantly better than that of cabozantinib and selpercatinib (LOXO-292)
4 | COc1ccc(CN2C3CC2CN(c2cnc(-c4cc(OCCF)cn5nc6[nH]ncc6c45)cn2)C3)cn1 [Compound 16, 6-(2-fluoroethoxy)-4-(5-(6-((6-methoxypyridin-3-yl)methyl)-3,6-diazabicyclo[3.3.1]heptan-3-yl)pyrazin-2-yl)-1H-pyrazolo[3′,4′:3,4]pyrazolo[1,5-a]pyridine] | 12.8 | 0.1 | significantly better than that of cabozantinib | – | – | significantly better than that of cabozantinib | 2.9 | significantly better than that of cabozantinib and selpercatinib (LOXO-292)
5 | O=C(Cc1ccccn1)N1CCN(c2ccc(-c3cc(OCCF)cn4nc5[nH]ncc5c34)cn2)CC1 [Compound 19, 1-(4-(5-(6-(2-fluoroethoxy)-1H-pyrazolo[3′,4′:3,4]pyrazolo[1,5-a]pyridin-4-yl)pyridin-2-yl)piperazin-1-yl)-2-(pyridin-2-yl)ethan-1-one] | 31.2 | – | – | – | – | significantly better than that of cabozantinib | 4.8 | significantly better than that of cabozantinib and selpercatinib (LOXO-292)
6 | O=C([C@H](O)c1ccccc1)N1CCN(c2ccc(-c3cc(OCCF)cn4nc5[nH]ncc5c34)cn2)CC1 [Compound 20, (R)-1-(4-(5-(6-(2-fluoroethoxy)-1H-pyrazolo[3′,4′:3,4]pyrazolo[1,5-a]pyridin-4-yl)pyridin-2-yl)piperazin-1-yl)-2-hydroxy-2-phenylethan-1-one] | 27.8 | – | – | – | – | significantly better than that of cabozantinib | 1.6 | significantly better than that of cabozantinib and selpercatinib (LOXO-292)
7 | CO[C@@H](C(=O)N1CCN(c2ccc(-c3cc(OCCF)cn4nc5[nH]ncc5c34)cn2)CC1)c1ccccc1 [Compound 21, (R)-1-(4-(5-(6-(2-fluoroethoxy)-1H-pyrazolo[3′,4′:3,4]pyrazolo[1,5-a]pyridin-4-yl)pyridin-2-yl)piperazin-1-yl)-2-methoxy-2-phenylethan-1-one] | 15.8 | – | – | – | – | significantly better than that of cabozantinib | 0.6 | significantly better than that of cabozantinib and selpercatinib (LOXO-292)
8 | COc1ccc(C(=O)N2CCN(c3ccc(-c4cc(OCCF)cn5nc6[nH]ncc6c45)cn3)CC2)cn1 [Compound 22, (4-(5-(6-(2-fluoroethoxy)-1H-pyrazolo[3′,4′:3,4]pyrazolo[1,5-a]pyridin-4-yl)pyridin-2-yl)piperazin-1-yl)(6-methoxypyridin-3-yl)methanone] | 39.5 | – | – | – | – | significantly better than that of cabozantinib | 1.7 | significantly better than that of cabozantinib and selpercatinib (LOXO-292)
9 | COc1ccc(C(=O)N2C3CC2CN(c2ccc(-c4cc(OCCF)cn5nc6[nH]ncc6c45)cn2)C3)cn1 [Compound 23, (3-(5-(6-(2-fluoroethoxy)-1H-pyrazolo[3′,4′:3,4]pyrazolo[1,5-a]pyridin-4-yl)pyridin-2-yl)-3,6-diazabicyclo[3.3.1]heptan-6-yl)(6-methoxypyridin-3-yl)methanone] | 7.9 | 0.1 | significantly better than that of cabozantinib | – | – | significantly better than that of cabozantinib | – | –
10 | COc1cc(-c2cnc(N3CC4CC(C3)N4Cc3ccc(OC)nc3)cn2)c2c3cn[nH]c3nn2c1 [Compound 24, 6-methoxy-4-(5-(6-((6-methoxypyridin-3-yl)methyl)-3,6-diazabicyclo[3.3.1]heptan-3-yl)pyrazin-2-yl)-1H-pyrazolo[3′,4′:3,4]pyrazolo[1,5-a]pyridine] | 22.4 | – | – | – | – | significantly better than that of cabozantinib | 2.3 | significantly better than that of cabozantinib and selpercatinib (LOXO-292)
11 | COc1ccc(CN2C3CC2CN(c2cnc(-c4cc(OCC(F)F)cn5nc6[nH]ncc6c45)cn2)C3)cn1 [Compound 25, 6-(2,2-difluoroethoxy)-4-(5-(6-((6-methoxypyridin-3-yl)methyl)-3,6-diazabicyclo[3.3.1]heptan-3-yl)pyrazin-2-yl)-1H-pyrazolo[3′,4′:3,4]pyrazolo[1,5-a]pyridine] | 23.4 | – | – | – | – | significantly better than that of cabozantinib | 4.3 | significantly better than that of cabozantinib and selpercatinib (LOXO-292)
12 | COc1ccc(CN2C3CC2CN(c2ccc(-c4cc(OCC#N)cn5nc6[nH]ncc6c45)cn2)C3)cn1 [Compound 26, 2-((4-(6-(6-((6-methoxypyridin-3-yl)methyl)-3,6-diazabicyclo[3.3.1]heptan-3-yl)pyridin-3-yl)-1H-pyrazolo[3′,4′:3,4]pyrazolo[1,5-a]pyridin-6-yl)oxy)acetonitrile] | 22.7 | – | – | – | – | significantly better than that of cabozantinib | 2.1 | significantly better than that of cabozantinib and selpercatinib (LOXO-292)
13 | COc1ccc(CN2C3CC2CN(c2ccc(-c4cc(OCCOC(F)F)cn5nc6[nH]ncc6c45)cn2)C3)cn1 [Compound 27, 6-(2-(difluoromethoxy)ethoxy)-4-(6-(6-((6-methoxypyridin-3-yl)methyl)-3,6-diazabicyclo[3.3.1]heptan-3-yl)pyridin-3-yl)-1H-pyrazolo[3′,4′:3,4]pyrazolo[1,5-a]pyridine] | 27.9 | 0.1 | significantly better than that of cabozantinib | 0.1 | significantly better than that of cabozantinib | significantly better than that of cabozantinib | 4.8 | significantly better than that of cabozantinib and selpercatinib (LOXO-292)
14 | COc1ccc(CN2C3CC2CN(c2ccc(-c4cc(OCC(F)(F)F)cn5nc6[nH]ncc6c45)cn2)C3)cn1 [Compound 30, 4-(6-(6-((6-methoxypyridin-3-yl)methyl)-3,6-diazabicyclo[3.3.1]heptan-3-yl)pyridin-3-yl)-6-(2,2,2-trifluoroethoxy)-1H-pyrazolo[3′,4′:3,4]pyrazolo[1,5-a]pyridine] | 48.6 | – | – | – | – | significantly better than that of cabozantinib | 5.9 | significantly better than that of cabozantinib and selpercatinib (LOXO-292)
